These results are taken from patent US5324747A, “N-substituted anilines, inhibitors of phospholipases A2” (Hoffmann-La Roche Inc., priority 1992, dated 1994).

Usually inhibition stands for the change of the read-out against control, counted positive when it falls. As a reminder, the IC50 is the concentration that gives 50% inhibition.

Molecules are shown by their SMILES.

The target of one assay is T1, HSF-PLA2 (Homo sapiens, UniProt P14555).
T1 construct: extracellular enzyme obtained from human synovial fluid (HSF-PLA2); from tissue; host or cells: pooled human synovial fluid, added at 0.1% (v/v)
T1 sequence (P14555 21-144): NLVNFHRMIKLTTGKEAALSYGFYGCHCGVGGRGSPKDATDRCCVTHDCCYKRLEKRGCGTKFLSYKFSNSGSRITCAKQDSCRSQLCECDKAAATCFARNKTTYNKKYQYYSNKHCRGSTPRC
Description: Assay for Inhibition of HSF-PLA2 In Vitro. The class given is biochemical. The note with it: for inhibition at 5 µM / inhibition at 1 µM: read-out: Inhib of HSF-PLA2, % inhibition; for IC50: read-out: Inhib of HSF-PLA2 IC50. The protocol:
Assay for Inhibition of HSF-PLA2 In Vitro
The PLA2 used in this test is the extracellular enzyme obtained from human synovial fluid (HSF-PLA2).
The optimal conditions which were developed for the assay of HSF-PLA2 inhibitors are summarized as follows. […] The reaction was initiated by the addition of HSF-PLA2 and duplicate samples of the mixture were incubated in 13×100 mm glass tubes with shaking for 30 minutes at 37° C. […] The extraction of lipids from the stopped reaction mixture was conducted by the further additions of […] of chloroform and 1 ml of water with mixing. After centrifuging, the lower chloroform phase was transferred to smaller glass tubes and the solvent was evaporated to dryness with a nitrogen stream. The extracted lipid residue was redissolved in 50 μl of a solution containing carrier oleic acid (0.2 mg/ml) of chloroform-methanol [9 to 1, v/v]). The whole lipid extract was applied to a preactivated (30 minutes at 110° C.) silica gel-impregnated glass fiber thin layer chromatography sheet (ITLC type SG sheet from Gelman Sciences, Inc., Ann Arbor, Mich.) using hexane-acetic acid (100 to 1, v/v) as the developing solvent. This TLC system rapidly (6 minutes) resolved the enzymatically released product, ^14 C-oleic acid, from the unreacted ^14 C-phospholipid substrate. The unsaturated lipids were located on the chromatogram by a brief exposure to iodine vapor. […] A control incubation of substrate in the absence of HSF-PLA2 was performed in each experiment.

The test system of the next assay is PLA2 Rat Paw Edema. Description: Phospholipase A2 Rat Paw Edema. The class given is in vivo, Lewis rats. To be noted: for inhibition in vivo at 30 mg/kg: Rattus norvegicus, 2 hr, read-out: % Inhib of PLA2 Rat Paw Edema 2 hr (30 mg/kg). As for the experimental part: Phospholipase A2 Rat Paw Edema
Representation compounds of the invention were tested in rats to determine their ability to inhibit the acute inflammatory response induced by the injection of snake venom phospholipase A2. Test compounds are administered intraperitoneally or orally to groups of seven Lewis rats (≈200 gm) 1 hr prior to phospholipase A2 administration. The test compounds are dissolved in dimethyl sulfoxide for intraperitoneal administration and dissolved or suspended in Labrafil M-1944CS for oral administration. At 0 hr, 5 ug (10 units) of purified phospholipase A2 from Naja naja venom (Sigma Chem. Co.) dissolved in 0.1 mL of pyrogen free saline is injected subplantarly into the right hind paw to elicit the inflammatory response. The volume (in mL) of the right hind paw is measured by immersion of the paw to the level of the lateral malleolus in an aqueous plethysmometer immediately prior to the injection of phospholipase A2 and then at 0.5, 2 and 4 hr after phospholipase A2 injection. The paw edema is calculated by subtracting the zero time reading from the readings taken after injection. The percent change of the edema volume from the vehicle treated control is calculated to determine the activity of the test compound. Statistical analysis of the mean paw edema values of the control versus the treated groups is performed using Student's t-test. Significance of changes from mean value for vehicle-treated animals (*p<0.05, **p<0.01, ***p<0.001, ns/not significant).

Assay [1] concerns Croton Oil Mouse Ear Edema. In words: Croton Oil Mouse Ear Edema Test. The class given is in vivo, CD-1 mice. To be noted: topical, coapplied, 6 hours.
Description: Twenty five μl of a 1% croton oil solution [dissolved in a mixture of pyridine/water/diethyl ether at a ratio of 5/20/75 (croton oil vehicle)] are applied to the outer side of the right ear of 3-4 week old made CD-1 mice (8 animals per group). The test compounds are dissolved directly in the 1% croton oil solution at various concentrations and coapplied. Control animals receive 25 μl of croton oil vehicle on the right ear. Biopsy punches are removed at 6 hours from the right ear of the animals using a 6 mm skin trephine (Roboz, Washington, D.C.) and the wet weight of the ear punches is determined. The weight of the biopsy punches is a measure of ear inflammation, primarily edema. The data are expressed as percent inhibition relative to control groups.

Take `CCCCCCCCCCN(CCCCCCCCCC)C(=O)c1cccc(N(CC(=O)O)CC(=O)O)c1` [Example 174]: the inhibition at 5 µM at HSF-PLA2 came out at 74%. Also, in the assay on PLA2 Rat Paw Edema, the inhibition in vivo at 30 mg/kg was 46%. Also, the “% Inhib of Croton Oil Mouse Ear Edema (1 mg)” value (from here on “% Inhib … (1 mg)”) in assay [1] was found to be 29%.
On to `CCCCCCCCCCCCCCCCCNC(=O)Oc1cccc(N(CC(=O)O)CC(=O)O)c1` [Example 36c, N-(carboxymethyl)-N-[3-[[(heptadecylamino)carbonyl]oxy]phenyl]glycine], for which the IC50 on HSF-PLA2 was found to be 1000 nM. For the same compound, the inhibition in vivo at 30 mg/kg with PLA2 Rat Paw Edema worked out at 0%. In addition, the “% Inhib … (1 mg)” value in assay [1] was 0%.
For the compound `CCCCCCCCCC(=O)Oc1ccc(N(CC(=O)O)CC(=O)O)cc1OC(=O)CCCCCCCCC` [Example 123, N-(Carboxymethyl)-N-[3,4-bis[(1-oxodecyl)oxy]phenyl]glycine], the IC50 on HSF-PLA2 was found to be 480 nM. Further, the inhibition in vivo at 30 mg/kg in the assay with PLA2 Rat Paw Edema was found to be 4%. Also, the “% Inhib … (1 mg)” value in assay [1] is given as 58%.
`CCCCCCCCCCOC(=O)c1cc(C(=O)OCCCCCCCCCC)cc(N(CC(=O)O)CC(=O)O)c1` [Example 6v, N-(carboxymethyl)-N-[3,5-bis[(decyloxy)carbonyl]phenyl]glycine]: the inhibition at 1 µM at HSF-PLA2 worked out at 73%. In addition, the inhibition in vivo at 30 mg/kg with PLA2 Rat Paw Edema came to 9%. Further, the “% Inhib … (1 mg)” value in assay [1] is 80%.
For the compound `CCCCCCCCCCCCCCCCCCOc1cc(OCCO)cc(N(CC(=O)O)CC(=O)O)c1` [Example 58a, N-(carboxymethyl)-N-[3-(2-hydroxyethoxy)-5-(octadecyloxy)phenyl]glycine], the half-inhibitory concentration (IC50) at HSF-PLA2 amounted to 200 nM. Further, the inhibition in vivo at 30 mg/kg in the assay with PLA2 Rat Paw Edema was found to be 29%. For the same compound, the “% Inhib … (1 mg)” value in assay [1] came to 0%.
The matching figures for `CCCCCCCCCCCCCCCCCCOc1cc(OCCCOc2ccc(OC)cc2)cc(N(CC(=O)O)CC(=O)O)c1` [Example 58k, N-(carboxymethyl)-N-[3-[3-(4-methoxyphenoxy)propoxy]-5-(octadecyloxy)phenyl]glycine]: 50 nM, 0% and 85%.
Turning to `CCCCCCCCCCCCCCOc1cc(C(=O)OC)cc(N(CC(=O)O)CC(=O)O)c1` [Example 69a, N-(carboxymethyl)-N-[(3-methoxycarbonyl)-5-(tetradecyloxy)phenyl]glycine], the inhibition at 1 µM at HSF-PLA2 is 52%. The inhibition in vivo at 30 mg/kg in the assay on PLA2 Rat Paw Edema is 12%. Besides, the “% Inhib … (1 mg)” value in assay [1] amounted to 71%.
Take `CCCCCCCCCCCCCCCCCCOc1cc(O)cc(N(CC(=O)O)CC(=O)O)c1` [Example 81, N-(Carboxymethyl)-N-[3-hydroxy-5-(octadecyloxy)phenyl]glycine]: at HSF-PLA2, the IC50 is 230 nM. In the assay with PLA2 Rat Paw Edema ((10 mg/kg)), the “% Inhib of PLA2 Rat Paw Edema 2 hr” value worked out at 44%. In assay [1], the “% Inhib … (1 mg)” value was 69%.
As for `CCCCCCCCCCCCCCCCCCOc1cc(OCCOc2ccc3ccccc3c2)cc(N(CC(=O)O)CC(=O)O)c1` [Example 58h, N-(carboxymethyl)-N-[3-[2-(2-naphthalenyloxy)ethoxy]-5-(octadecyloxy)phenyl]glycine], the IC50 at HSF-PLA2 came out at 50 nM. In addition, the inhibition in vivo at 30 mg/kg in the assay on PLA2 Rat Paw Edema worked out at 31%. Moreover, in assay [1], the “% Inhib … (1 mg)” value was 3%.
Consider `CCCCCCCCCCCCCCCCCCOc1cc(C(N)=O)cc(N(CC(=O)O)CC(=O)O)c1` [Example 75, N-(Carboxymethyl)-N-[(3-carbamoyl)-5-(octadecyloxy)phenyl]glycine], for which the inhibition at 5 µM at HSF-PLA2 amounted to 84%. In the assay with PLA2 Rat Paw Edema, the inhibition in vivo at 30 mg/kg was 33%. Besides, the “% Inhib … (1 mg)” value in assay [1] is listed as 15%.
In the case of `CCCCCCCCCCCCCCCCCCOc1cc(OCCCCC(=O)O)cc(N(CC(=O)O)CC(=O)O)c1` [Example 65, N-[3-(4-Carboxybutoxy)-5-(octadecyloxy)phenyl]-N-(carboxymethyl)glycine], on HSF-PLA2, the IC50 was 860 nM. In the assay with PLA2 Rat Paw Edema, the inhibition in vivo at 30 mg/kg is 35%. The “% Inhib … (1 mg)” value in assay [1] is given as 91%.
As to `CCCCCCCCCCCCCCCCCCOc1cc(N(CC(=O)O)CC(=O)O)cc([N+](=O)[O-])c1` [Example 93, N-(Carboxymethyl)-N-[3-nitro-5-(octadecyloxy)phenyl]glycine], the inhibition at 1 µM on HSF-PLA2 amounted to 56%. Further, the inhibition in vivo at 30 mg/kg in the assay on PLA2 Rat Paw Edema worked out at 20%. Further, in assay [1], the “% Inhib … (1 mg)” value worked out at 0%.
Take `CCCCCCCCCCCCCCOc1ccc(N(CC(=O)O)CC(=O)O)cc1OCCCCCCCCCCCCCC` [Example 119, N-(Carboxymethyl)-N-[3,4-bis(tetradecyloxy)phenyl]glycine]: on HSF-PLA2, the inhibition at 1 µM was found to be 36%. In addition, the inhibition in vivo at 30 mg/kg in the assay on PLA2 Rat Paw Edema came out at 16%. Also, the “% Inhib … (1 mg)” value in assay [1] was found to be 49%.
As to `CCCCCCCCCCCCCCCCCCOc1cc(OCCCOc2ccc(C(=O)OC)cc2)cc(N(CC(=O)O)CC(=O)O)c1` [Example 58o, N-(carboxymethyl)-N-[3-[3-[4-(methoxycarbonyl)phenoxy)propoxy]-5-(octadecyloxy)phenyl]glycine], at HSF-PLA2, the IC50 stood at 100 nM. Further, the inhibition in vivo at 30 mg/kg with PLA2 Rat Paw Edema came to 0%. Also, in assay [1], the “% Inhib … (1 mg)” value turned out to be 30%.
Turning to `CCCCCCCCCCCCCCCCCC(=O)Oc1cccc(N(CC(=O)O)CC(=O)O)c1` [Example 36b], the IC50 on HSF-PLA2 is 200 nM. For the same compound, the inhibition in vivo at 30 mg/kg in the assay on PLA2 Rat Paw Edema amounted to 0%. Besides, the “% Inhib … (1 mg)” value in assay [1] amounted to 61%.
`CCCCCCCCCCCCCCCCCCOc1cc(N(CC(=O)O)CC(=O)O)cc([S+]([O-])CC(=O)O)c1` (stereo not drawn) [Example 168, [[3-[bis(Carboxymethyl)amino]-5-(octadecyloxy)phenyl]sulfinyl]acetic acid]: the inhibition at 1 µM on HSF-PLA2 was 26%. In addition, the inhibition in vivo at 30 mg/kg with PLA2 Rat Paw Edema came out at 45%. Also, the “% Inhib … (1 mg)” value in assay [1] is 83%.
Taken in the same sequence, the figures for `CCCCCCCCCCOc1cc(OCCCCCCCCCC)cc(N(CC(=O)O)CC(=O)OCCN(CC)CC)c1.Cl` [Example 33, N-(2-Diethylaminoethoxy-2-oxoethyl)-N-[3,5-bis(decyloxy)phenyl]glycine monohydrochloride salt] were -5%, 15% and 25%.
Regarding `CCCCCCCCCCOc1cc(OCCCCCCCCCC)cc(N2CC(=O)OC(=O)C2)c1` [Example 30, 4-[3,5-bis(decyloxy)phenyl]2,6-morpholinedione], the IC50 on HSF-PLA2 amounted to 470 nM. The inhibition in vivo at 30 mg/kg with PLA2 Rat Paw Edema was found to be 91%. For the same compound, the “% Inhib … (1 mg)” value in assay [1] is 63%.
Consider `CCCCCCCCCCCCCCCCCCOc1cc(OCc2ccc3ccccc3n2)cc(N(CC(=O)O)CC(=O)O)c1` [Example 148, N-(Carboxymethyl)-N-[3-(octadecyloxy)-5-[(2-quinolinyl)methoxy]phenyl]glycine], for which the inhibition at 1 µM at HSF-PLA2 was found to be 91%. In addition, in the assay with PLA2 Rat Paw Edema, the inhibition in vivo at 30 mg/kg was determined as 37%. The “% Inhib … (1 mg)” value in assay [1] is recorded as 26%.
Take `CCCCCCCCCCCCCCCCCCOc1cc(OCC(=O)OC)cc(N(CC(=O)O)CC(=O)O)c1` [Example 58b, N-(carboxymethyl)-N-[3-(2-methoxy-2-oxoethoxy)-5-(octadecyloxy)phenyl]glycine]: the inhibition at 5 µM on HSF-PLA2 was 91%. In addition, in the assay on PLA2 Rat Paw Edema, the inhibition in vivo at 30 mg/kg was 20%. Besides, in assay [1], the “% Inhib … (1 mg)” value is 19%.
Consider `CCCCCCCCCCCCCCOc1cc(C(=O)O)cc(N(CC(=O)O)CC(=O)O)c1` [Example 69b, N-[3-carboxy-5-(tetradecyloxy)pyhenyl]-N-(carboxymethyl)glycine], for which the inhibition at 1 µM on HSF-PLA2 came out at 18%. In the assay with PLA2 Rat Paw Edema, the inhibition in vivo at 30 mg/kg stood at 4%. Besides, in assay [1], the “% Inhib … (1 mg)” value amounted to 72%.
